Measurements reported in US12350403B2, “Methods of making therapeutic polymeric material” (priority 2015, dated 2025).
≈ marks a conversion by molar mass, not a printed value.

How the values were obtained:
[1] = cited from earlier work
Xen 29 [2] = assay: Minimum inhibitory concentration against Xen 29; format: cell-based, S. aureus; conditions: Staphylococcus aureus, 29, read-out: Minimum inhibitory concentration of rifampin against Xen 29
[3] = value used for minimum release rate; cited from earlier work
[4] = UV-Vis spectra of vancomycin eluted from unirradiated and irradiated blend; format: physicochemical; conditions: blended in the polymeric material, with and without terminal irradiation
Procedure: Vancomycin HCl-blended UHMWPE was prepared with a concentration of 6 wt % vancomycin as described in Example 3. Consolidation was performed at 170° C. for 10 min at 20 MPa. The platens were then cooled down with air down to approximately 162° C. and then cooled down with water starting at approximately 156° C. down to about room temperature to obtain an approximately 3 mm-thick puck (approximately 10.5 mm diameter). Consolidated vancomycin-blended samples (VPE) were then either used as is or gamma irradiated at 100 kGy. UHMWPE without additives was used as control. In vitro elution of samples in all three groups was conducted in phosphate buffered saline (PBS) as described in Example 3. After no detectable vancomycin could be measured through UV-Vis, the presence of vancomycin grafted onto the surface of the polymer was determined by labeling with an anti-vancomycin antibody.

[5] = human hip, assumed; cited from earlier work
Xen 29 [6] = conditions: cited from earlier work

Row | Structure (SMILES) | share of intravenous antibiotic that penetrates bone [1] | MIC (Xen 29 [2]) [µg/mL] | minimum inhibitory concentration [3] [µg/mL] | effect of irradiation on vancomycin (UV absorbance of eluted vancomycin) [4] | approximate clearance half-life from the joint space [5] [h] | Minimum inhibitory concentration of vancomycin against Xen 29 (Xen 29 [6]) [µg/mL]
1 | Cc1nnc(SCC2=C(C(=O)O)N3C(=O)[C@@H](NC(=O)Cn4cnnn4)[C@H]3SC2)s1 [cefazolin] | 7-15% |  |  |  |  | 
2 | CO/N=C(\C(=O)N[C@@H]1C(=O)N2C(C(=O)O)=C(CSc3nc(=O)c(=O)[nH]n3C)CS[C@H]12)c1csc(N)n1 [ceftriaxone] | 5-19% |  |  |  |  | 
3 | CO[C@H]1/C=C/O[C@@]2(C)Oc3c(C)c(O)c4c(O)c(c(/C=N/N5CCN(C)CC5)c(O)c4c3C2=O)NC(=O)/C(C)=C\C=C\[C@H](C)[C@H](O)[C@@H](C)[C@@H](O)[C@@H](C)[C@H](OC(C)=O)[C@@H]1C [rifampin] |  | 0.01 (≈ 0.0122 µM) | 1 (≈ 1.22 µM) |  |  | 
4 | CN[C@H](CC(C)C)C(=O)N[C@H]1C(=O)N[C@@H](CC(N)=O)C(=O)N[C@H]2C(=O)N[C@H]3C(=O)N[C@H](C(=O)N[C@H](C(=O)O)c4cc(O)cc(O)c4-c4cc3ccc4O)[C@H](O)c3ccc(c(Cl)c3)Oc3cc2cc(c3O[C@@H]2O[C@H](CO)[C@@H](O)[C@H](O)[C@H]2O[C@H]2C[C@](C)(N)[C@H](O)[C@H](C)O2)Oc2ccc(cc2Cl)[C@H]1O [vancomycin] | 5-20% |  | 2 (≈ 1.38 µM) | not affected by irradiation | ~3.5 | 1
